Test results taken from patent US11795460B2, “Compositions and methods for TTR gene editing and treating ATTR amyloidosis” (Intellia Therapeutics, Inc., priority 2017, dated 2023).

What was measured:
[1] = test system: TTR; assay: TTR editing in HepG2 cells transfected with Spy Cas9 mRNA and dgRNAs (Table 6); format: cell-based, human; details: HepG2 cells co-transfected with Spy Cas9 mRNA (SEQ ID NO:2) and dgRNAs
Protocol: HepG2 cell line. The human hepatocellular carcinoma cell line HepG2 (American Type Culture Collection, Cat. HB-8065) was cultured in DMEM media supplemented with 10% fetal bovine serum. Cells were counted and plated on Bio-coat collagen I coated 96-well plates (ThermoFisher, Cat. 877272) at a density of 10,000 cells/well in a 96-well plate 24 hours prior to transfection. Cells were transfected with Lipofectamine 2000 (ThermoFisher, Cat. 11668019) per the manufacturer's protocol. Cells were sequentially transfected with lipoplex containing Spy Cas9 mRNA (100 ng), Lipofectamine 2000 (0.2 μL/well) and OptiMem followed by a separate lipoplex containing individual crRNA (25 nM), tracer RNA (25 nM), Lipofectamine 2000 (0.2 μL/well) and OptiMem.
(§1) Transfected cells were harvested post-transfection at 24, 48, or 72 hours. The genomic DNA was extracted from each well of a 96-well plate using 50 μL/well BuccalAmp DNA Extraction solution (Epicentre, Cat. QE09050) per manufacturer's protocol. All DNA samples were subjected to PCR and subsequent NGS analyses, as described herein.
(§2) To quantitatively determine the efficiency of editing at the target location in the genome, sequencing was utilized to identify the presence of insertions and deletions introduced by gene editing.
(§3) Primers were designed around the target site within the gene of interest (e.g. TTR), and the genomic area of interest was amplified.
(§4) Additional PCR was performed per the manufacturer's protocols (Illumina) to add chemistry for sequencing. The amplicons were sequenced on an Illumina MiSeq instrument. The reads were aligned to a reference genome (e.g., the human reference genome (hg38), the cynomologus reference genome (mf5), the rat reference genome (rn6), or the mouse reference genome (mm10)) after eliminating those having low quality scores. The resulting files containing the reads were mapped to the reference genome (BAM files), where reads that overlapped the target region of interest were selected and the number of wild type reads versus the number of reads which contain an insertion, substitution, or deletion was calculated.
(§5) The editing percentage (e.g., the “editing efficiency” or “percent editing” or “indel frequency”) is defined as the total number of sequence reads with insertions/deletions (“indels”) or substitutions over the total number of sequence reads, including wild type.
(§6) Guides in dgRNA format targeting human TTR and the cynomologus matched sequences were delivered to HEK293 Cas9, HUH7 and HepG2 cell lines, as well as primary human hepatocytes and primary cynomolgus monkey hepatocytes as described in Example 1. Percent editing was determined for crRNAs comprising each guide sequence across each cell type and the guide sequences were then rank ordered based on highest % edit. The screening data for the guide sequences in Table 1 in all five cell lines are listed below (Table 4 through 11).

[2] = test system: TTR; assay: TTR editing in primary human hepatocytes electroporated with Spy Cas9 protein loaded with dgRNAs (Table 7); format: cell-based; details: dgRNA electroporated with Spy Cas9 protein (RNP)
Protocol: (§7) Primary liver hepatocytes. Primary human liver hepatocytes (PHH) and primary cynomolgus liver hepatocytes (PCH) (Gibco) were cultured per the manufacturer's protocol (Invitrogen, protocol 11.28.2012). In brief, the cells were thawed and resuspended in hepatocyte thawing medium with supplements (Gibco, Cat. CM7000) followed by centrifugation at 100 g for 10 minutes for human and 80 g for 4 minutes for cyno. The supernatant was discarded and the pelleted cells resuspended in hepatocyte plating medium plus supplement pack (Invitrogen, Cat. A1217601 and CM3000). Cells were counted and plated on Bio-coat collagen I coated 96-well plates (ThermoFisher, Cat. 877272) at a density of 33,000 cells/well for human or 60,000 cells/well for cyno (or 65,000 cells/well when assaying effects on TTR protein, described further below). Plated cells were allowed to settle and adhere for 6 or 24 hours in a tissue culture incubator at 37° C. and 5% CO2 atmosphere. After incubation cells were checked for monolayer formation and media was replaced with hepatocyte culture medium with serum-free supplement pack (Invitrogen, Cat. A1217601 and CM4000).
(§8) […] formation was performed prior to electroporation or transfection of Spy Cas9 protein loaded with guide RNAs (RNPs) onto cells. For dual guide (dgRNAs), individual crRNA and trRNA was pre-annealed by mixing equivalent amounts of reagent and incubating at 95° C. for 2 min and cooling to room temperature. Single guide (sgRNAs) were boiled at 95° C. for 2 min and cooling to room temperature. The boiled dgRNA or sgRNA was incubated with Spy Cas9 protein in Optimem for 10 minutes at room temperature to form a ribonucleoprotein (RNP) complex.
For RNP electroporation into primary human and cyno hepatocytes, the cells are thawed and resuspended in Lonza electroporation Primary Cell P3 buffer at a concentration of 2500 cells per μL for human hepatocytes and 3500 cells per μL for cyno hepatocytes. A volume of 20 μL of resuspended cells and 5 μL of RNP are mixed together per guide. 20 μL of the mixture is placed into a Lonza electroporation plate. The cells were electroporated using the Lonza nucleofector with the preset protocol EX-147. Post electroporation, the cells are transferred into a Biocoat plate containing pre-warmed maintenance media and placed in a tissue culture incubator at 37° C. and 5% CO2.
as §1, §2, §3, §4
The editing percentage (e.g., the “editing efficiency” or “percent editing” or “indel frequency”) is defined as the total number of sequence reads with insertions/deletions (“indels”) or substitutions over the total number of sequence reads, including wild type. […]

[3] = test system: TTR; assay: TTR editing in primary human hepatocytes transfected with Spy Cas9 mRNA and dgRNAs (Table 9); format: cell-based; details: dgRNA co-transfected with Spy Cas9 mRNA (SEQ ID NO:2)
Protocol: as §7
Lipofectamine RNAiMax (ThermoFisher, Cat. 13778150) based transfections were conducted as per the manufacturer's protocol. Cells were sequentially transfected with a lipoplex containing Spy Cas9 mRNA (100 ng), Lipofectamine RNAiMax (0.4 μL/well) and OptiMem followed by a separate lipoplex containing crRNA (25 nM) and tracer RNA (25 nM) or sgRNA (25 nM), Lipofectamine RNAiMax (0.4 μL/well) and OptiMem.
as §1, §2, §3, §4, §5, §6

[4] = test system: TTR; assay: TTR editing in HEK293_Cas9 cells transfected with dgRNAs (Table 4); format: cell-based, human; details: HEK293_Cas9 cells (constitutively express Spy Cas9) transfected with dgRNAs
Protocol: HEK293 Cas9 cell line. The human embryonic kidney adenocarcinoma cell line HEK293 constitutively expressing Spy Cas9 (“HEK293_Cas9”) was cultured in DMEM media supplemented with 10% fetal bovine serum and 500 μg/ml G418. Cells were plated at a density of 10,000 cells/well in a 96-well plate 24 hours prior to transfection. Cells were transfected with Lipofectamine RNAiMAX (ThermoFisher, Cat. 13778150) per the manufacturer's protocol. Cells were transfected with a lipoplex containing individual crRNA (25 nM), trRNA (25 nM), Lipofectamine RNAiMAX (0.3 μL/well) and OptiMem.
as §1, §2, §3, §4, §5, §6

[5] = test system: TTR; assay: TTR editing in primary human hepatocytes transfected with Spy Cas9 protein (RNP) loaded with dgRNAs (Table 8); format: cell-based; details: dgRNA transfected with Spy Cas9 protein (RNP)
Protocol: as §7, §8
For RNP lipoplex transfections, cells were transfected with Lipofectamine RNAiMAX (ThermoFisher, Cat. 13778150) per the manufacturer's protocol. Cells were transfected with an RNP containing Spy Cas9 (10 nM), individual guide (10 nM), tracer RNA (10 nM), Lipofectamine RNAiMAX (1.0 μL/well) and OptiMem. RNP formation was performed as described above.
as §1, §2, §3, §4, §5
Guides in dgRNA format targeting human TTR and the cynomologus matched sequences were delivered to HEK293 Cas9, HUH7 and HepG2 cell lines, as well as primary human hepatocytes and primary cynomolgus monkey hepatocytes as described in Example 1. […]

[6] = test system: TTR; assay: TTR editing in HUH7 cells transfected with Spy Cas9 mRNA and dgRNAs (Table 5); format: cell-based, human; details: HUH7 cells co-transfected with Spy Cas9 mRNA (SEQ ID NO:2) and dgRNAs
Protocol: HUH7 cell line. The human hepatocellular carcinoma cell line HUH7 (Japanese Collection of Research Bioresources Cell Bank, Cat. JCRB0403) was cultured in DMEM media supplemented with 10% fetal bovine serum. Cells were plated on at a density of 15,000 cells/well in a 96-well plate 20 hours prior to transfection. Cells were transfected with Lipofectamine MessengerMAX (ThermoFisher, Cat. LMRNA003) per the manufacturer's protocol. Cells were sequentially transfected with a lipoplex containing Spy Cas9 mRNA (100 ng), MessengerMAX (0.3 μL/well) and OptiMem followed by a separate lipoplex containing individual crRNA (25 nM), tracer RNA (25 nM), MessengerMAX (0.3 μL/well) and OptiMem.
as §1, §2, §3, §4, §5, §6

Sequence | Avg % Deletion [1] [%] | Avg % Edit [1] [%] | Avg % Insert [1] [%] | Avg % Deletion [2] [%] | Avg % Edit [2] [%] | Avg % Insert [2] [%] | Avg % Deletion [3] [%] | Avg % Edit [3] [%] | Avg % Insert [3] [%] | Avg % Deletion [4] [%] | Avg % Edit [4] [%] | Avg % Insert [4] [%] | Avg % Deletion [5] [%] | Avg % Edit [5] [%] | Avg % Insert [5] [%] | Avg % Deletion [6] [%] | Avg % Edit [6] [%] | Avg % Insert [6] [%]
GUAUUCACAGCCAACGACUC (tested as dual guide RNA, chemistry not given here) [CR003373] | 1.77 | 17.69 | 15.92 | 0.07 | 0.87 | 0.83 | 0.37 | 1.40 | 1.00 | 12.25 | 13.55 | 1.31 | 0.19 | 3.64 | 3.44 | 25.12 | 27.29 | 3.31
UGCACGGCCACAUUGAUGGC (tested as dual guide RNA, chemistry not given here) [CR003349] | 3.91 | 8.36 | 4.46 | 1.87 | 4.10 | 2.33 | 1.70 | 2.57 | 0.90 | 5.16 | 13.19 | 8.03 | 1.83 | 10.83 | 9.00 | 4.82 | 14.14 | 9.73
AAUGGUGUAGCGGCGGGGGC (tested as dual guide RNA, chemistry not given here) [CR003375] | 0.10 | 2.06 | 1.96 | 0.07 | 1.33 | 1.27 | 0.03 | 1.27 | 1.23 | 10.85 | 11.63 | 0.78 | 0.11 | 5.04 | 4.93 | 2.25 | 2.38 | 0.26
AAAUCUUACUGGAAGGCACU (tested as dual guide RNA, chemistry not given here) [CR005306] | 2.87 | 24.07 | 21.20 | 1.37 | 9.43 | 8.07 | 2.87 | 9.97 | 7.13 | – | – | – | 2.57 | 18.81 | 16.24 | – | – | –
GCGGCGGGGGCCGGAGUCGU (tested as dual guide RNA, chemistry not given here) [CR003374] | 0.31 | 5.43 | 5.12 | 0.10 | 0.80 | 0.70 | 0.03 | 0.27 | 0.27 | 10.10 | 10.91 | 0.81 | 0.14 | 2.65 | 2.52 | 2.87 | 3.10 | 0.45
CGGCAAUGGUGUAGCGGCGG (tested as dual guide RNA, chemistry not given here) [CR003376] | 0.24 | 14.41 | 14.16 | 0.03 | 1.90 | 1.87 | 0.13 | 2.83 | 2.73 | 26.81 | 28.16 | 1.35 | 0.14 | 5.00 | 4.86 | 18.55 | 19.42 | 1.37
